Here are results for four compounds from patent US9227977B2, “Phosphoinositide 3-kinase inhibitors” (RESPIVERT LTD., priority 2013, dated 2016).

The target in one data set is PI3K δ (Homo sapiens (Human), UniProt O00329). Briefly: PI3K enzyme inhibition assay (HTRF TR-FRET). Format: biochemical. From the text:
(§1) The PI3K enzymes catalyse the phosphorylation of phosphatidylinositol 4,5-biphosphate (PIP2) to phosphatidylinositol 3,4,5-triphosphate (PIP3) in the presence of ATP and Mg^2+ ions. The PIP3 product can be detected by displacement of biotin-PIP3 from energy transfer complexes consisting of europium labelled anti-GST monoclonal antibody, a GST-tagged Pleckstrin homology (PH) domain, biotinylated PIP3 and streptavidin-allophycocyanin (APC) by the time-resolved fluorescence resonance energy transfer (TR-FRET) (HTRF®PI3K enzyme assay, Millipore). Excitation, at 330 nm, of europium in the complex results in an energy transfer to the APC and a fluorescent emission at 665 nm although europium itself emits at its characteristic wavelength of 620 nm. The PIP3 product formed by PI3K activity displaces biotin-PIP3 from the complex and results in a loss of energy transfer (decreasing signal).
(§2) The compound to be tested was added, at the desired final concentrations, to a mixture of PIP2 substrate and a recombinant PI3K enzyme (either α, β or δ isoforms, ex Millipore, or γ isoform [p110γ+p101 construct], ex United States Biological, Swampscott, Mass.) and the mixture incubated for 2 hr at RT. […] A stopping solution containing biotinylated PIP3 and the detection mix containing the GST tagged GRP1 pleckstrin homology (PH) domain and fluorophores were then added and the mixture was incubated at RT for 15-18 hr, prior to detection in a fluorescence microplate reader (Synergy 4, BioTek UK, Bedfordshire, UK).
(§3) The results were calculated according to the formula: APC signal (emission at 665 nm)/europium signal (emission at 620 nm)×10^4.
In general terms: Time-resolved FRET reads energy transfer from a long-lived donor to a nearby acceptor.

A further data set addresses PI3K α (Homo sapiens (Human), UniProt P42336). Briefly: PI3K enzyme inhibition assay (HTRF TR-FRET). The data set is classed as biochemical.
Source text: as §1, §2, §3

A further data set deals with PI3K γ (Homo sapiens (Human), UniProt P48736). Briefly: PI3K enzyme inhibition assay (HTRF TR-FRET). The data set is classed as biochemical.
Chain of PI3K γ (P48736 whole entry, species assumed): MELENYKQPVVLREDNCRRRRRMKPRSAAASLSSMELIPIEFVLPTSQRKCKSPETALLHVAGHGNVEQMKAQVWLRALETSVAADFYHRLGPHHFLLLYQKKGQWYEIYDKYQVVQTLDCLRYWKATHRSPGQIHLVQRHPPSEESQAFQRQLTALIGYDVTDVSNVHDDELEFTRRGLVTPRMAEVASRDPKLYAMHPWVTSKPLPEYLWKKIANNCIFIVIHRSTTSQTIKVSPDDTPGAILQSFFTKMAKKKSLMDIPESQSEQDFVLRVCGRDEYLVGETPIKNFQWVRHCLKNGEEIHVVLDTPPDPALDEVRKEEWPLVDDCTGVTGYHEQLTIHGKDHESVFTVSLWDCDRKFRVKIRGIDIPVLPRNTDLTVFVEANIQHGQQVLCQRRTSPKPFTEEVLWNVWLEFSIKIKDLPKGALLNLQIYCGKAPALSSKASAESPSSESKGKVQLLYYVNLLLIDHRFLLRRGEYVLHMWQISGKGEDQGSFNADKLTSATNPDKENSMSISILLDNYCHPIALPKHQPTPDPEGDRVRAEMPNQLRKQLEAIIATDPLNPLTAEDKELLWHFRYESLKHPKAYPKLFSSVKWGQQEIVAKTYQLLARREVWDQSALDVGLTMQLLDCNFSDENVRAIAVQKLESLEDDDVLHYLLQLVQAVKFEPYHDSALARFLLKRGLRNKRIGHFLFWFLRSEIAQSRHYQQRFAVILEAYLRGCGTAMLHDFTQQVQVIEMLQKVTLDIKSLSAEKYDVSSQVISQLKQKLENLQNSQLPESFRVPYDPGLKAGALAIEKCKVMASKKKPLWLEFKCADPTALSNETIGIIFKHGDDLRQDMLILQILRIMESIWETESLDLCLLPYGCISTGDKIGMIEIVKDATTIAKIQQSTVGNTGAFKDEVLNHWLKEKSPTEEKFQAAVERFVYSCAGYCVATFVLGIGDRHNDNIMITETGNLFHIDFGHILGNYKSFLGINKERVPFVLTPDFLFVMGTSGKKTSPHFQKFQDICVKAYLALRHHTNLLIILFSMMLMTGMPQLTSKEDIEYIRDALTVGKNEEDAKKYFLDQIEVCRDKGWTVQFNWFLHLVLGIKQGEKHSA
Chain of PI3K γ (Q8WYR1 whole entry partner, species assumed): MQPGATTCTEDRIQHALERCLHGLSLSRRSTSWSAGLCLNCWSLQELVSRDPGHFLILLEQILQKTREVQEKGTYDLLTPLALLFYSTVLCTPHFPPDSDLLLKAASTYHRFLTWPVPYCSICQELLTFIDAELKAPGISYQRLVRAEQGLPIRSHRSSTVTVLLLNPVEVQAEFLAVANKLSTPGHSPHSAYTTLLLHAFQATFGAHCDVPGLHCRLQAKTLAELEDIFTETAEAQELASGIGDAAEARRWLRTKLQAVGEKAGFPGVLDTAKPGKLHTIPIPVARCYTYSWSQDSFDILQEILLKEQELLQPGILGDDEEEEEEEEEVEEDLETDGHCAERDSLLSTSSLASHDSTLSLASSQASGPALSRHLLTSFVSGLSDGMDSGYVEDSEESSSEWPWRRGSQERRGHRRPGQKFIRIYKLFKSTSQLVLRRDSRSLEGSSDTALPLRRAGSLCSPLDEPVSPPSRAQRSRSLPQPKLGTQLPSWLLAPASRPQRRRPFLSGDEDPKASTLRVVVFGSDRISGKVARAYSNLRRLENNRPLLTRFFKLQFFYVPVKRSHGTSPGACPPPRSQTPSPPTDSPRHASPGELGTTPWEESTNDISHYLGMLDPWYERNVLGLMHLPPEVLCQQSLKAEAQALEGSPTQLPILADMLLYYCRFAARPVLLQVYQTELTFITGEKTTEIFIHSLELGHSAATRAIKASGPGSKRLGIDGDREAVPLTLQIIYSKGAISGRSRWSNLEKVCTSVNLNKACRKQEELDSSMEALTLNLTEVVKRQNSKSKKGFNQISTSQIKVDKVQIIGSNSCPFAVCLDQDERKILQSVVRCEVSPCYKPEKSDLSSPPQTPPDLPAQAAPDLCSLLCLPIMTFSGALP
Source text: as §1, §2, §3

A further data set has as its system d-U937 cells. Put plainly: MTT assay, cell viability. The settings on record: 10 μg/mL. Format: cell-based, human. The procedure:
PMA-differentiated U937 cells were pre-incubated with test compound (10 μg/mL) or vehicle for 4 hr in 5% FCS or 10% FCS for 24 hr. The supernatant was replaced with new media (200 μL) and MTT stock solution (10 μL, 5 mg/mL) was added to each well. After 1 hr incubation, the media were removed, 200 μL of DMSO was added to each well and the plates were shaken lightly for 1 hr prior to reading the absorbance at 550 nm. The percentage loss of cell viability was calculated for each well relative to vehicle (0.5% DMSO)-treatment.
For orientation: Formazan colour is commonly taken as a measure of viable cells.

The next data set has as its target PI3K β (Homo sapiens (Human), UniProt P42338). Put plainly: PI3K enzyme inhibition assay (HTRF TR-FRET). To be noted: read-out: PI3 Kinase Inhibition IC50 value at state isozyme, β. The data set is classed as biochemical.
Source text: as §1
The compound to be tested was added, at the desired final concentrations, to a mixture of PIP2 substrate and a recombinant PI3K enzyme (either α, β or δ isoforms, ex Millipore, or γ isoform [p110γ+p101 construct], ex United States Biological, Swampscott, Mass.) and the mixture incubated for 2 hr at RT. Following this incubation period, ATP (10 μM) was added to the enzyme/compound/PIP2 substrate mixture and the resulting mixture was incubated for a further 30 min at RT. A stopping solution containing biotinylated PIP3 and the detection mix containing the GST tagged GRP1 pleckstrin homology (PH) domain and fluorophores were then added and the mixture was incubated at RT for 15-18 hr, prior to detection in a fluorescence microplate reader (Synergy 4, BioTek UK, Bedfordshire, UK).
The results were calculated according to the formula: APC signal (emission at 665 nm)/europium signal (emission at 620 nm)×10^4. The percentage inhibition of each reaction was calculated relative to DMSO treated control, and the 50% inhibitory concentration (IC50 value) then calculated from the concentration-response curve.

For data set [1], the system named is cigarette smoke-induced cell accumulation and biomarkers in murine BALF. Briefly: Cigarette smoke model. The data set is classed as in vivo, mouse. To be noted: 0.3-10 mg/kg, p.o.
Data set [2] has the same test system. Put plainly: Cigarette smoke model. Format: in vivo, mouse. To be noted: dose used for co-administration. The procedure: A/J mice (males, 5 weeks old) were exposed to cigarette smoke (4% cigarette smoke, diluted with compressed air) for 30 min/day for 11 days using a Tobacco Smoke Inhalation Experiment System for small animals (Model SIS-CS; Sibata Scientific Technology, Tokyo, Japan). Test substances were administered once daily for 3 days after the final cigarette smoke exposure (intra-nasal dose comprising 35 μL of solution in 50% DMSO/isotonic saline).
At 12 hr after administration of the last dose, animals were anesthetized, the trachea was cannulated and bronchial alveolar lavage (BAL) was carried out by the instillation into and then withdawal from the lungs, of PBS (100 mL/kg). Total cell numbers in the BALF samples were measured using a haemocytometer under a phase-contrast microscope. The proportions of alveolar macrophages and neutrophils were determined by FACS analysis using anti-mouse MOMA2-FITC (macrophage) or anti-mouse 7/4 (neutrophil).
Cells were suspended in PBS and were incubated with anti-MOMA2-FITC (2 μg/mL, Catalogue no SM065F, Acris Antibodies GmbH, Herford, Germany) or anti-7/4-FITC (2 μg/mL, Catalogue no CL050F, Acris Antibodies GmbH, Herford, Germany) for 30 min at 30° C., and also counterstained with propidium iodide (2 μg/mL) to allow exclusion of necrotic cells. The cells were washed with PBS, and transferred to FACS tubes. Samples was set in a flow cytometer (ALTRA II; Beckman Coulter Japan, Tokyo, Japan), and a single-parameter FL2 [PMT2] (FITC) histogram with log x-axis was plotted to illustrate relative intensity of FITC.
Data files are stored for subsequent analysis using Kaluza analysis software (ver. 1.2) to calculate the proportion of each cell type. The levels of CXCL1(KC), MCP1, TNFα, IL-17 or osteopontin in BALF were determined using Quentikine® mouse KC, MCP1, TNFα, IL-17 or osteopontin ELISA kit (R&D systems, Inc., Minneapolis, Minn., USA). The presence of malondialdehyde was measured using OxiSelect® TBARS Assay Kit (MDA Quantitation; Cell Biolabs Inc, San Diego, Calif., USA).

Read-outs that look alike come from different tables or passages of the source.

Chain of PI3K δ (O00329 whole entry, species assumed): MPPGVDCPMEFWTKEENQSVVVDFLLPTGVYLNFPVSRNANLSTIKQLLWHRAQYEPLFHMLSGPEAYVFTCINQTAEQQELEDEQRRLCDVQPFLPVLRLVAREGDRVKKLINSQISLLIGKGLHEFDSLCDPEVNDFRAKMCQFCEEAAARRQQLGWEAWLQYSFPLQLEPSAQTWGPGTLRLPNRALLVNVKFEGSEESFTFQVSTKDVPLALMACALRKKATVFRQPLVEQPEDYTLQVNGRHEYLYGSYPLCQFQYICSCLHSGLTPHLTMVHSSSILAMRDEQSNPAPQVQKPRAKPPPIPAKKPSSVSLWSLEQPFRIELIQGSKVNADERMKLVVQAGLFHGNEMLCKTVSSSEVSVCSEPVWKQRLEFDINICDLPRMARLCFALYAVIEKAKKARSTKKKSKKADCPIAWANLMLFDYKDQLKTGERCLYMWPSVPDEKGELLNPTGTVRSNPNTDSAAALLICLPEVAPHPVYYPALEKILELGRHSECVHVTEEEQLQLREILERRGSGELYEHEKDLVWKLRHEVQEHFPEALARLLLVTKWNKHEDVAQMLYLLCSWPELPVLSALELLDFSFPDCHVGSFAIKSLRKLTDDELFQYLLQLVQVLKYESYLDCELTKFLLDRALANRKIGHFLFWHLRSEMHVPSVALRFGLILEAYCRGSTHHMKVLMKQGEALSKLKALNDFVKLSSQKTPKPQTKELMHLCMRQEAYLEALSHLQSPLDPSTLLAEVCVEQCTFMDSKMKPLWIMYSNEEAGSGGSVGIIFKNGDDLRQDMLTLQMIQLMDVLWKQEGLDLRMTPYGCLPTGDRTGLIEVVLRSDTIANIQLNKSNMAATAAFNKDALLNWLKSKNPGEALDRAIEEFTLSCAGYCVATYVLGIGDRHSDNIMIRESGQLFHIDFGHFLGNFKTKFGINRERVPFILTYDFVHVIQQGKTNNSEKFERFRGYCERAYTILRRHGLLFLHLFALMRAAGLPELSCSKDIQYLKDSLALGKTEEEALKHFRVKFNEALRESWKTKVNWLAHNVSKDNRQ
Chain of PI3K δ (P27986 whole entry partner, species assumed): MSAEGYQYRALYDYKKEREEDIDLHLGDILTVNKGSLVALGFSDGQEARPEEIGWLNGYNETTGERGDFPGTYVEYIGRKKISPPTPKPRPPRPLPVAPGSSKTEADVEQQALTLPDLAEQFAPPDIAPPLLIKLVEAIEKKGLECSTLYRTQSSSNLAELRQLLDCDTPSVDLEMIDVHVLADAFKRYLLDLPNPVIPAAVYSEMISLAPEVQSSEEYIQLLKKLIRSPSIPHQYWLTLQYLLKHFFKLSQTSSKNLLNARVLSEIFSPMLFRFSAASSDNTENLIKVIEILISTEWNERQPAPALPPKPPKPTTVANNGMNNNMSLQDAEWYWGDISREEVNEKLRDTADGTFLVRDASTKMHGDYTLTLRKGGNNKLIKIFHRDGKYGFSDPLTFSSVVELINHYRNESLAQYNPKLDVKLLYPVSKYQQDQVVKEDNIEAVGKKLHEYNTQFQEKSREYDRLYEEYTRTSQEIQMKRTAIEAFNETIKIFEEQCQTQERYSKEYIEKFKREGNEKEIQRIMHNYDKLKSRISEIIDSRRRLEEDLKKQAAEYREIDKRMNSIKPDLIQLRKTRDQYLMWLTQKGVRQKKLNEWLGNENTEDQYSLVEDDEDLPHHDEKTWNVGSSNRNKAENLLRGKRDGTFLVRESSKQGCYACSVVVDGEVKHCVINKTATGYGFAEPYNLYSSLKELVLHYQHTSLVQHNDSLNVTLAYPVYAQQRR
Chain of PI3K α (P42336 whole entry, species assumed): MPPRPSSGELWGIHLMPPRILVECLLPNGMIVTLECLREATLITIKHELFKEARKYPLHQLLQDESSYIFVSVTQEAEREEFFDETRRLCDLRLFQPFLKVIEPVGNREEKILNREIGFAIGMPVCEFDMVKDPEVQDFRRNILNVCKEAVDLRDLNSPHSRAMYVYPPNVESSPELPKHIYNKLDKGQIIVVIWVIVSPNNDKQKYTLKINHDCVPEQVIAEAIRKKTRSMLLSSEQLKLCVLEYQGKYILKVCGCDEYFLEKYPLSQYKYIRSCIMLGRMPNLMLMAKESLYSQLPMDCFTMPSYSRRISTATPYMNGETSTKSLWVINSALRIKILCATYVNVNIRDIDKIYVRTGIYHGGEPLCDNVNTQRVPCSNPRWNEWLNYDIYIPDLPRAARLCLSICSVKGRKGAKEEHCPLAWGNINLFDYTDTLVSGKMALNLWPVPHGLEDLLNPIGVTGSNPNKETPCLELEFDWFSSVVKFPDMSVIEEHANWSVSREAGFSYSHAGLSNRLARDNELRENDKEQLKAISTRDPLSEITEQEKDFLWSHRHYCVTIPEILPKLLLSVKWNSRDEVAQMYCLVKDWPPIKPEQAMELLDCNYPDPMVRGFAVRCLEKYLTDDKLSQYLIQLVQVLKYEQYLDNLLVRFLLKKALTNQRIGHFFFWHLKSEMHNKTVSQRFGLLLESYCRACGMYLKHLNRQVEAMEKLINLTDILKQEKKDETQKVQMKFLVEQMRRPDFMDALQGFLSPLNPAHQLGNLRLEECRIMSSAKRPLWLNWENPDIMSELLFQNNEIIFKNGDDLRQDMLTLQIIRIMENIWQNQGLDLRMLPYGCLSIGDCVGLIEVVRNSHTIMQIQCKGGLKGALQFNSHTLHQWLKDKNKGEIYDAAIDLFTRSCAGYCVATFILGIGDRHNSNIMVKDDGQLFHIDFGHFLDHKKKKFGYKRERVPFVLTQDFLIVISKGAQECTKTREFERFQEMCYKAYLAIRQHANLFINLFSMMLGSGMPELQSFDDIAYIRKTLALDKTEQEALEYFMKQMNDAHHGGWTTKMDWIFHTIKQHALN
Chain of PI3K α (P27986 whole entry partner, species assumed): as the sequence (P27986 whole entry partner, species assumed) above

Regarding `Nc1ncnc2c1c(-c1cc(O)cc(F)c1)nn2Cc1nc2cccc(C#CCOCCOCCO)c2c(=O)n1Cc1ccccc1C(F)(F)F` [Compound (Ia), 2-((4-Amino-3-(3-fluoro-5-hydroxyphenyl)-1H-pyrazolo[3,4-d]pyrimidin-1-yl)methyl)-5-(3-(2-(2-hydroxyethoxy)ethoxy)prop-1-yn-1-yl)-3-(2-(trifluoromethyl)benzyl)quinazolin-4(3H)-one], on PI3K δ, the “inhibition of PI3K δ compared with compound of formula (I) (in words)” value was “significantly less active”. Further, the IC50 at PI3K δ (read-out: PI3 Kinase Inhibition IC50 value at state isozyme, δ) was 0.017 µM; at PI3K α (read-out: PI3 Kinase Inhibition IC50 value at state isozyme, α), more than 14.2 µM; on PI3K γ (read-out: PI3 Kinase Inhibition IC50 value at state isozyme, γ) it was 0.577 µM; on PI3K β, more than 14.2 µM. Besides, the “inhibition of PI3K γ compared with compound of formula (I) (in words)” value at PI3K γ was “significantly less active”. Also, in the data set with d-U937 cells (4 hr), the “Cell Viability MTT Assay in d-U937 cells at 4 hr” value is on record as “−ve (−ve indicates a value of <30% inhibition at 10 μg/mL)”. Moreover, the “Cell Viability MTT Assay in d-U937 cells at 24 hr” value in the data set with d-U937 cells (24 hr) is “−ve (−ve indicates a value of <30% inhibition at 10 μg/mL)”.

For `COCCOCCOCC#Cc1cccc2nc(Cn3nc(-c4cccc(O)c4)c4c(N)ncnc43)n(Cc3ccccc3F)c(=O)c12` [Example 50, 2-((4-amino-3-(3-hydroxyphenyl)-1H-pyrazolo[3,4-d]pyrimidin-1-yl)methyl)-3-(2-fluorobenzyl)-5-(3-(2-(2-methoxyethoxy)ethoxy)prop-1-ynyl) quinazolin-4(3H)-one, reference compound], the IC50 at PI3K δ (read-out: IC50 Values for PI3K inhibition at isozyme indicated, PI3K δ) worked out at 0.0057 µM; at PI3K α (read-out: IC50 Values for PI3K inhibition at isozyme indicated, PI3K α) it was 0.653 µM; at PI3K γ (read-out: IC50 Values for PI3K inhibition at isozyme indicated, PI3K γ), 0.12 µM.

Turning to `C[C@@H]1C[C@H]2[C@@H]3CCC4=CC(=O)C=C[C@]4(C)[C@@]3(F)[C@@H](O)C[C@]2(C)[C@@]1(O)C(=O)CO` [dexamethasone], the “activity in cigarette smoke model (in words)” value in data set [1] is “inactive”.

Regarding `CCC(=O)O[C@]1(C(=O)SCF)[C@H](C)C[C@H]2[C@@H]3C[C@H](F)C4=CC(=O)C=C[C@]4(C)[C@@]3(F)[C@@H](O)C[C@@]21C` [fluticasone propionate, reference compound], in data set [2], the “effect as monotherapy in cigarette smoke model (in words)” value is reported as “lacks any significant effect”.

As usually defined, the IC50 is the midpoint of a concentration-inhibition curve.
